Where “and” joins values, the source holds several entries; their conditions need not be identical. Equal entries are not always repeated. Where two headings read alike, the source gives them in different places. Where only a bound is given, the exact number is not on record here.

Series [1] in a line: Canine pharmacokinetics, compounds dosed individually. It is filed as in vivo, canines (beagles). Conditions: beagle, dog, plasma, oral 2 or 4 mg/kg, read-out: Canine t1/2 (converted).
Protocol: In this example, each compound was administered individually to canines (not cassette dosed). […] Plasma drug concentrations were then determined by liquid chromatography-mass spectrometry methods. This process was repeated for each compound tested.
Series [2] in a line: Rat pharmacokinetics, single oral dose, non-cassette. In kind it is in vivo. As to conditions: for half-life: rat.
Protocol: All rat pharmacokinetics data is non-cassette dosed. Non-cassette dosed pharmacokinetics means that each compound was dosed individually (i.e. not part of a cassette of compounds). Cassette-dosing is a technique in which 2 or more compounds are simultaneously administered to an animal and the pharmacokinetics of each compound is monitored individually even though it is in the same animal/blood sample.
At each sample collection time, blood samples were collected from three rats by cardiac puncture and then processed into plasma. […] Plasma drug concentrations were then determined by liquid chromatography-mass spectrometry methods. The mean plasma concentrations from each of the three samples collected at each time point were then plotted as a function of time. This process was repeated for each compound tested.
Series [3] can be described thus: Canine cassette-dosed pharmacokinetics. In kind it is in vivo, canines (beagles). Conditions: for half-life: beagle, dog, plasma, 2 mg/kg; for increase in plasma half-life in canines: versus 4-methylphenyl compound.
Protocol: Cassette-dosing is a technique in which 2 or more compounds are simultaneously administered to an animal and the pharmacokinetics of each compound is monitored individually even though it is in the same animal/blood sample.
Cassette-dosing refers to the practice of dosing 2 or more compounds simultaneously to animals. […] Blood samples were collected over time intervals ranging from 0 to 50 days into EDTA tubes and plasma harvested. Plasma drug concentrations were then determined for each compound in the cassette by liquid chromatography-mass spectrometry methods. This process was repeated for each group of compounds (cassette) tested.
For another series, the target named is hCOX-1 (Homo sapiens, UniProt P23219). Nature of the series: hCOX-1 enzyme inhibition (IC50). As to conditions: repeated experimental results listed separately. It is filed as biochemical.
A further series has as its target T1, hCOX-2 (Homo sapiens, UniProt P35354).
T1 sequence (P35354 18-604): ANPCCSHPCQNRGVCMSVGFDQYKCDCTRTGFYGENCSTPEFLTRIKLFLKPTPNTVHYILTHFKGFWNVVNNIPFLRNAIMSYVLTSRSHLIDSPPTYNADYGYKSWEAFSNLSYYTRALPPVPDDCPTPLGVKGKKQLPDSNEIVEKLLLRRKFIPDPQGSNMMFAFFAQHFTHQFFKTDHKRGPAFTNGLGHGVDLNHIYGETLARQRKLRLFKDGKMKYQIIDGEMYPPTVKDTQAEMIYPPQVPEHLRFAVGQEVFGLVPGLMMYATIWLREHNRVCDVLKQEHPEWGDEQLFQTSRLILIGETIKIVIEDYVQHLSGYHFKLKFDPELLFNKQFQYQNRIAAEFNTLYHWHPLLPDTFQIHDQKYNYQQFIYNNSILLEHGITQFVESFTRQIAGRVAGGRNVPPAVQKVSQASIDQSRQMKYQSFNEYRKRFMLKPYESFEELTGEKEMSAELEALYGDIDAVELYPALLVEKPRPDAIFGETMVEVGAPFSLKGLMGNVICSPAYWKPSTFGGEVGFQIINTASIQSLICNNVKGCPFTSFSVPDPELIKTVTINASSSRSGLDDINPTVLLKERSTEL
As to the kind of experiment: hCOX-2 enzyme inhibition (IC50) and selectivity. As to conditions: for hCOX selectivity hCOX-1/hCOX-2: Cox-1 IC50/Cox-2 IC50; for IC50: repeated experimental results listed separately. In kind it is biochemical.

In series [4] the test system is adjuvant-induced arthritis in male Lewis rats. Nature of the series: Adjuvant-induced arthritis in rat paws (paw volume). In kind it is in vivo. Conditions: single oral dose, 3 mg/kg (FIG. 2) / 3 mg/mL, followed 28 days. The protocol:
This experiment was performed following a modified method of Connor, J. et al. (European J. Pharmacology, 1995, 273:15-24). Briefly, arthritis was induced in pathogen-free, male Lewis rats by an intadermal injection of 20 mg/ml Mycobacterium butyricum suspended in squalene in three sites at the base of the tail. The injection of mycobacteria produces a systemic autoimmune response and subsequent chronic inflammation of the joints with many similarities to rheumatoid arthritis. The induced arthritis was allowed to develop for 14 days at which time animals were given a single oral dose of a Cox-2 selective inhibitor at […]. Effectiveness was assessed by the decrease in rat paw edema (paw volume) for 28 days following the Cox-2 inhibitor dose. Paw volume was determined using a water displacement plethysmometer. To gage the drug response, the paw volumes of rats treated with Cox-2 selective inhibitors were compared to normal healthy rats without induced arthritis and without drug (normal-control group) and rats with induced arthritis but without drug (adjuvant-control group).
All of the compounds tested in this model were effective for a minimum of 5 days.

The conditions of series [5]: cited from earlier work.
Where [6] appears, read: plasma, po, 2 mg/kg, plasma, oral 2 mg/kg, non-cassette dosed, read-out: Rat t1/2 (converted).
Setting [7] is: po, oral 2 mg/kg each compound, cassette, read-out: Canine Cassette-dosed t1/2 (converted).

hCOX-1, sequence (P23219 24-599): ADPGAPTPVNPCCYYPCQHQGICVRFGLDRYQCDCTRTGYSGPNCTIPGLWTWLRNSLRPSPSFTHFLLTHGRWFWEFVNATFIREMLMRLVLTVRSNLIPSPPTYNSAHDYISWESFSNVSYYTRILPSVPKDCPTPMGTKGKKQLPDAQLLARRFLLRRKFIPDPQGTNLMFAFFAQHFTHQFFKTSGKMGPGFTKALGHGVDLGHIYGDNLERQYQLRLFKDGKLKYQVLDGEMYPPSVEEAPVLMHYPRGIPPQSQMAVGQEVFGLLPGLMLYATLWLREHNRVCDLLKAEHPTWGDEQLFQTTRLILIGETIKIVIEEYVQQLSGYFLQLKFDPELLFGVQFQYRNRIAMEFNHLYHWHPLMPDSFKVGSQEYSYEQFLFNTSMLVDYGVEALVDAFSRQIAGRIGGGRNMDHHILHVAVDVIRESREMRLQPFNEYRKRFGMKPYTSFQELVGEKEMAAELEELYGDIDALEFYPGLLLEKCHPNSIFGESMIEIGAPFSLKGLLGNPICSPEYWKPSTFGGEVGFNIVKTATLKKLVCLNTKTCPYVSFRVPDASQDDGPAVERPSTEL
Protocol for hCOX-1: (§1) The specificity of a given extended duration Cox-2 inhibitor is measured by determining the IC50 or EC50 for each compound described above.
Protocol for hCOX-2: as §1

Turning to `NS(=O)(=O)c1ccc(-n2nc(C(F)(F)F)cc2-c2ccc(Cl)cc2Cl)cc1` [4-[5-(2,4-[dichlorophenyl)-3-(trifluoromethyl)-1H-pyrazol-1-yl]benzenesulfonamide], the half-life was 466 h in series [1], 97 h in series [2] (setting [6]) and roughly 771 h in series [3] (setting [7]).
On to `NS(=O)(=O)c1ccc(-n2nc(C(F)(F)F)cc2-c2ccc(F)cc2F)cc1` [4-[5-(2,4-[difluorophenyl)-3-(trifluoromethyl)-1H-pyrazol-1-yl]benzenesulfonamide], for which the IC50 (usually the concentration that inhibits the measured activity by half) on hCOX-1 was 38400 nM and 14000 nM and 22400 nM; at hCOX-2 it was 149 nM and 36 nM and < 137 nM. In addition, the half-life is 233 h in series [1], 25 h in series [2] (setting [6]) and roughly 716 h in series [3] (setting [7]). In addition, the “hCOX selectivity hCOX-1/hCOX-2” value on hCOX-2 stood at 393.
Take `NS(=O)(=O)c1ccc(-n2nc(C(F)(F)F)cc2-c2ccc(Cl)c(Cl)c2)cc1` [4-[5-(3,4-dichlorophenyl)-3-(trifluoromethyl)-1H-pyrazol-1-yl]benzenesulfonamide]: the “effectiveness in minimizing rat paw volume over longer time periods” value in series [4] is listed as “effective extended duration compounds”. Further, the half-life in series [1] was 762 h; in series [2] (setting [6]), 157 h; in series [3] (setting [7]) it was roughly 830 h.
For `NS(=O)(=O)c1ccc(-n2nc(C(F)(F)F)cc2-c2ccc(F)c(F)c2)cc1` [4-[5-(3,4-difluorophenyl)-3-(trifluoromethyl)-1H-pyrazol-1-yl]benzenesulfonamide], the results for the half-life in series [1], in series [2] (setting [6]) and in series [3] (setting [7]) were 500 h, 59 h and roughly 881 h, respectively.
For `COc1c(Cl)cc(-c2cc(C(F)(F)F)nn2-c2ccc(S(N)(=O)=O)cc2)cc1Cl` [4-[5-(3,5-dichloro-4-methoxyphenyl)-3-(trifluoromethyl)-1H-pyrazol-1-yl]benzenesulfonamide], the half-life in series [3] (setting [7]) was roughly 17 h. Besides, at hCOX-2, the IC50 is 54.7 nM and 39 nM.
In the case of `COc1ccc(-c2cc(C(F)(F)F)nn2-c2ccc(S(N)(=O)=O)cc2)cc1Cl` [4-[5-(3-chloro-4-methoxyphenyl)-3-(trifluoromethyl)-1H-pyrazol-1-yl]benzenesulfonamide], the half-life in series [3] (setting [7]) is roughly 22 h.
Take `Cc1ccc(-c2cc(C(F)(F)F)nn2-c2ccc(S(N)(=O)=O)cc2)cc1Cl` [4-[5-(3-chloro-4-methylphenyl)-3-(trifluoromethyl)-1H-pyrazol-1-yl]benzenesulfonamide]: the IC50 on hCOX-1 is 57000 nM and 12500 nM and 14300 nM; against hCOX-2, 24.9 nM and < 137 nM and 7 nM. Further, the half-life in series [2] (setting [6]) is 5.1 h; in series [3] (setting [7]) it was 17 h. For the same compound, the “hCOX selectivity hCOX-1/hCOX-2” value at hCOX-2 was found to be 2289.
For the compound `COc1cc(-c2cc(C(F)(F)F)nn2-c2ccc(S(N)(=O)=O)cc2)ccc1Br` [4-[5-(4-bromo-3-methoxyphenyl)-3-(trifluoromethyl)-1H-pyrazol-1-yl]benzenesulfonamide], the IC50 against hCOX-1 was 30300 nM and 35300 nM. The half-life in series [1] is 71 h. In addition, on hCOX-2, the “hCOX selectivity hCOX-1/hCOX-2” value is 669; the IC50 was 45.3 nM and < 137 nM.
For `Cc1cc(-c2cc(C(F)(F)F)nn2-c2ccc(S(N)(=O)=O)cc2)ccc1Cl` [4-[5-(4-chloro-3-methylphenyl)-3-(trifluoromethyl)-1H-pyrazol-1-yl]benzenesulfonamide], the IC50 was 4920 nM on hCOX-1 and less than 137 nM on hCOX-2. The half-life is 12 h in series [1] and roughly 44 h in series [3] (setting [7]).
Take `NS(=O)(=O)c1ccc(-n2nc(C(F)(F)F)cc2-c2ccc(Cl)cc2)cc1` [4-[5-(4-chlorophenyl)-3-(trifluoromethyl)-1H-pyrazol-1-yl]benzenesulfonamide]: the half-life in series [2] (plasma, oral, 2 mg/kg, single dosage administration, read-out: Rat half-life (converted)) is 192 h; in series [2] (setting [6]), 193 h; in series [3] (oral, cassette-dosed, single dosage, read-out: canine half-life (converted)), roughly 1180 h; in series [3] (setting [7]), roughly 1190 h. The compound also gave a Rat half-life in series [2] (single dosage administration) of no more than 190 h. Further, the canine half-life in series [3] (cassette-dosed, single dosage) is no more than 1180 h. Moreover, the “increase in plasma half-life in canines” value in series [3] (fast metabolizing subtype) is given as 207 fold; in series [3] (slow metabolizing subtype) it was 691 fold. Besides, the “duration of therapeutically effective blood concentration” value in series [3] (without increased or additional dosing) is given as “at least 24 hours”.
Take `NS(=O)(=O)c1ccc(-n2nc(C(F)(F)F)cc2-c2ccc(F)cc2)cc1` [4-[5-(4-fluorophenyl)-3-(trifluoromethyl)-1H-pyrazol-1-yl]benzenesulfonamide]: the half-life in series [1] is 289 h; in series [2] (setting [6]), 32 h; in series [3] (setting [7]) it was 572 h.
As to `COc1c(C)cc(-c2cc(C(F)(F)F)nn2-c2ccc(S(N)(=O)=O)cc2)cc1C` [4-[5-(4-methoxy-3,5-dimethylphenyl)-3-(trifluoromethyl)-1H-pyrazol-1-yl]benzenesulfonamide], the IC50 on hCOX-1 is greater than 100000 nM; against hCOX-2 it was 80 nM. In series [3] (setting [7]), the half-life was roughly 18 h.
`COc1ccc(-c2cc(C(F)(F)F)nn2-c2ccc(S(N)(=O)=O)cc2)cc1C` [4-[5-(4-methoxy-3-methylphenyl)-3-(trifluoromethyl)-1H-pyrazol-1-yl]benzenesulfonamide]: the half-life in series [3] (setting [7]) was roughly 36 h.
In the case of `COc1ccc(-c2cc(C(F)(F)F)nn2-c2ccc(S(N)(=O)=O)cc2)cc1` [4-[5-(4-methoxyphenyl)-3-(trifluoromethyl)-1H-pyrazol-1-yl]benzenesulfonamide], in series [3] (setting [7]), the half-life was roughly 21 h.
With `Cc1ccc(-c2cc(C(F)(F)F)nn2-c2ccc(S(N)(=O)=O)cc2)cc1` [4-[5-(4-methylphenyl)-3-(trifluoromethyl)-1H-pyrazol-1-yl]benzenesulfonamide], the half-life was 14 h in series [2] (female, in vivo, female rats, non-cassette dosed, comparison data, read-out: Rat t1/2 in Female (converted)) and 3.73 h in series [2] (male, in vivo, male rats, non-cassette dosed, comparison data, read-out: Rat t1/2 in Male (converted)). Moreover, the “Canine t1/2” value in series [5] (comparison data for the 4-methylphenyl compound) is 1.72 to 5.18 h. Further, the results for the “effective half-life in canines” value in series [5] (fast metabolizing subtype (so in the source)) and in series [5] (slow metabolizing subtype (so in the source)) were 5.72 h and 1.72 h, respectively.
